Reference: US12005078B2, “Genetically engineered drug resistant T cells and methods of using the same” (The UAB Research Foundation, priority 2015, dated 2024)

How the values were obtained:
[1] = system: X12T glioma; assay: Survival of TMZ-resistant glioma-bearing mice; type: in vivo; conditions: cells given as single administration per week
Text: (§1) The expression of NKG2DL on tumor cells increases the overall potency of γδ T cell therapy. FIGS. 5A and 5B show the survival of X12P and X12T (TMZ resistant) glioma-bearing mice, respectively, in response to various treatments. […] The DRI treatment regimen increased median survival from 57 to 75 days over the TMZ treatment regimen. […] The DRI treatment regimen increased median survival from 22 to 27 days over the TMZ treatment regimen. The effect of the DRI treatment regimen could be increased by intensification of the administration of the γδ T cells and NK cells from a single administration per week (as shown in FIG. 2) to two administrations per week (data not shown).

[2] = system: X12P glioma; assay: Survival of glioma-bearing mice; type: in vivo
Text: as §1

Cn1nnc2c(C(N)=O)ncn2c1=O [TMZ, temozolomide]
median survival [1]: 22 days
median survival [2]: 57 days
